Reference: PMC8151276, “An Integrated Approach toward NanoBRET Tracers for Analysis of GPCR Ligand Engagement” (Molecules, 2021)
Each block holds one compound with its values, some of them ahead of it.

Legend:
Format in all cases: binding
AVPR2 = target: T1, AVPR2 (Homo sapiens, UniProt P30518); assay: NanoBRET screen HiBiT-AVPR2 in HEK293
T1 construct: purchased Promega (in-house HiBiT-GPCR construct library, NanoBRET)
Experimental: (§1) Each tracer candidate was screened across the entire library of HiBiT-GPCR constructs using NanoBRET as the detection modality. As depicted in Figure 4A, the specificity of interactions was evaluated through decrease in BRET due to competitive displacement of a bound tracer by excess parental compound. Each tracer was analyzed for binding to each HiBiT-GPCR fusion in the absence and in the presence of competing parental compound. Briefly, HEK293 cells were transfected with HiBiT-GPCR constructs diluted into promoterless DNA to reduce expression and maximize translocation to the cell surface. Each tracer candidate was then screened at concentrations of 1 μM and 0.1 μM across cells expressing these fusions. Cells were treated for 1.5 h with tracer either alone or in the presence of 20 μM competing parental compound (i.e., control). BRET was measured upon addition of purified LgBiT and subsequent complementation with HiBiT genetically fused to a GPCR. The specificity of interactions was assessed through a decrease in BRET signal due to competitive displacement of the bound tracer. To further gauge the robustness of these interactions, the fold response over the control (i.e., BRETtracer/BRETcontrol) was calculated. We chose a 1.5-fold response, which translates to ≥7-fold signal over noise as the minimal threshold required to score an interaction as positive. […]. Below we highlight the screening results obtained for our exemplary fluorescent tracers based on Clozapine, Amitriptyline and AZD1283.
(§2) HiBiT-GPCR DNA constructs were diluted in 10 mM Tris pH 8 to a final concentration of 0.01 μg/μL, arrayed in 96-well plates and stored at −20 °C. For transfection, HEK293 cells were suspended in Opti-MEM (without phenol red) supplemented with 2% fetal bovine serum (Seradigm) and 100 units/mL penicillin–streptomycin (Gibco) at a final concentration of 220,000 cells/mL and dispensed into white 96-well plates at 90 μL/well. Subsequent transfections and screens were carried using an Agilent Bravo Automated Liquid Handling Platform. First, the 96-well HiBiT DNA arrays were diluted 25-fold in Opti-MEM (without serum or phenol red) to a final concentration of 0.0004 μg/μL and 20 μL of the diluted DNAs were transferred into new 96-well plates. Next, promoterless carrier DNA (1 μg/μL) was diluted 25-fold (0.04 μg/μL) and then dispensed into the diluted arrays at 20 μL/well. Following brief mixing, Viafect transfection reagent (Promega) diluted 16-fold into Opti-MEM was dispensed into the plates at 40 μL/well. After mixing by pipetting, plates were incubated for 10 min on the pipetting station deck. The DNA-transfection reagent complexes were then added to plates containing cells. To facilitate the screen, 10 μL of DNA-transfection reagent complexes were added in duplicates to the top 4 and bottom 4 rows, resulting in two identical 48-well arrays per plate. Plates with transfected cells were incubated for 18–20 h at 37 °C/5% CO2. A screen of each tracer across the entire library using two different concentrations requires duplicate plates of transfected cells. Depending on the number of tracers being screened, transfections can be scaled up using the same ratios. The next day, for each tracer, four 20× screening solutions in tracer dilution buffer (Promega) were prepared: two duplicates at final concentration of 20 μM and two duplicates at a final concentration of 2 μM. A competing unmodified compound was added to one of each duplicate at a final concentration of 400 μM. The four resulting solutions were diluted 4-fold in Opti-MEM without serum or phenol red to generate 5× solutions (5 µM and 0.5 µM tracer +/− 100 μM competing compound). To screen the library, a BioTek MultiFlo FX liquid dispenser was used to dispense 22.5 µL of tracer solution to the top 4 rows and 22.5 µL tracer + competing compound solution to the 4 bottom rows. Plates were briefly mixed on an orbital shaker and incubated for 1.5 h at room temperature. […]

CCR9 = target: T2, CCR9 (Homo sapiens, UniProt P51686); assay: NanoBRET screen HiBiT-CCR9 in HEK293
T2 construct: purchased Promega (in-house HiBiT-GPCR construct library, NanoBRET)
T2 sequence (P51686 1-369): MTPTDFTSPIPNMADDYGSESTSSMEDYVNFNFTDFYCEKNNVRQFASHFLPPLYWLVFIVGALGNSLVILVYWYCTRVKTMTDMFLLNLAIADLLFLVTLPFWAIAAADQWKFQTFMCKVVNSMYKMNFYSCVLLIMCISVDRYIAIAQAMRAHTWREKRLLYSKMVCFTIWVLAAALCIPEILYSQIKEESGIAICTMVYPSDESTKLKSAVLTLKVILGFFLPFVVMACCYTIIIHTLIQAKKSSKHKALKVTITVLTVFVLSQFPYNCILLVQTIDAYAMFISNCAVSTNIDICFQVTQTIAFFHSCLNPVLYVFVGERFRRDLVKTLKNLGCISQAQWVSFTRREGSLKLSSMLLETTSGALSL
Experimental: as §1, §2

GRPR = target: T3, GRPR (Homo sapiens, UniProt P30550); assay: NanoBRET screen HiBiT-GRPR in HEK293
T3 construct: purchased Promega (in-house HiBiT-GPCR construct library, NanoBRET)
T3 sequence (P30550 whole entry): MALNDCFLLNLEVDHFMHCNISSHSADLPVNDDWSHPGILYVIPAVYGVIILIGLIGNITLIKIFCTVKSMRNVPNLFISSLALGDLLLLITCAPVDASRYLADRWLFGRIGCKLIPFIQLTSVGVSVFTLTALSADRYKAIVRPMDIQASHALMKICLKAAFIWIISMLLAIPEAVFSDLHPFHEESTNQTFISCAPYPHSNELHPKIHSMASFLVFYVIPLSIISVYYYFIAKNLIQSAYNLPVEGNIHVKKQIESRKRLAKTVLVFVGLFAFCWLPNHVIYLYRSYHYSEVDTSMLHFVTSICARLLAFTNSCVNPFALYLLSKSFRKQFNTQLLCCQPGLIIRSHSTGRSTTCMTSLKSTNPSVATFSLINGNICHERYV
Experimental: as §1, §2

P2RY10 = target: T4, P2RY10 (Homo sapiens, UniProt O00398); assay: NanoBRET screen HiBiT-P2RY10 in HEK293
T4 construct: purchased Promega (in-house HiBiT-GPCR construct library, NanoBRET)
T4 sequence (O00398 whole entry, one chain of several): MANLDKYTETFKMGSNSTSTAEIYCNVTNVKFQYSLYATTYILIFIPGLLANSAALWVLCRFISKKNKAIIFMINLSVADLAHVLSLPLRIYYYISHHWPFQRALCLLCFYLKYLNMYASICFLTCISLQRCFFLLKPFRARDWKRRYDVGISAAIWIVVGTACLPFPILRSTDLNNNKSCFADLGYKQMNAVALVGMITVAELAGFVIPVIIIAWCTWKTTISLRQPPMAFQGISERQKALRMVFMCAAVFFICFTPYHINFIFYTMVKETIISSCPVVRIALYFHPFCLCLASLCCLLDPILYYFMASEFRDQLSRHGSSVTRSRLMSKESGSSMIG
Experimental: as §1, §2

HCRTR1 = target: T5, HCRTR1 (Homo sapiens, UniProt O43613); assay: NanoBRET screen HiBiT-HCRTR1 in HEK293
T5 construct: purchased Promega (in-house HiBiT-GPCR construct library, NanoBRET)
T5 sequence (O43613 1-425): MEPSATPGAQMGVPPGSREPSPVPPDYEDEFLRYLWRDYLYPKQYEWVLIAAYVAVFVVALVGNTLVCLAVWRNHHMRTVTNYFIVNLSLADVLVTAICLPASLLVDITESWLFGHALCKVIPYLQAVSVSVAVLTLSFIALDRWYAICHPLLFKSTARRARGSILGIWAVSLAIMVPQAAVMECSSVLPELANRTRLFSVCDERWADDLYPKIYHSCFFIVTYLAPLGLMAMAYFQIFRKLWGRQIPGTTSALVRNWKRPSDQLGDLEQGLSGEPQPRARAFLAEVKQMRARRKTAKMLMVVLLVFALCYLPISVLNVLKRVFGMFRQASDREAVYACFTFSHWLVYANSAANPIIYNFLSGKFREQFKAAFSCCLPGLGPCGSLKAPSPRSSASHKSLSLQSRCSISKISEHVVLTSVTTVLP
Experimental: as §1, §2

[1] = tracer at 0.1μM, listed as amitriptyline-b-2-NB590
[2] = tracer at 1μM, listed as amitriptyline-b-2-NB590

T1 sequence (P30518 whole entry): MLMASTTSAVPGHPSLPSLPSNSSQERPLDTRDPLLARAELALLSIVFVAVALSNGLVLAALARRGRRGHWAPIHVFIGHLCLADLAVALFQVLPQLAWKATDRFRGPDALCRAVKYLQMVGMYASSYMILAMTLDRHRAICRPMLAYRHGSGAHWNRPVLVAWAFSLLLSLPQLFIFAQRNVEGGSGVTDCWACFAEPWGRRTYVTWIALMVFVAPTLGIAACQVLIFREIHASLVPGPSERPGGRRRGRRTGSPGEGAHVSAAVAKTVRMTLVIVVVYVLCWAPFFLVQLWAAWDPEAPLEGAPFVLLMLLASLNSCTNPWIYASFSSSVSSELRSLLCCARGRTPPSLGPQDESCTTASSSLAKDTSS

SMILES: CC(C)N(CC[C@H](c1ccccc1)c1cc(CCNC(=O)CCOCCOCCOCCOCCNC(=O)CCc2ccc3n2[B-](F)(F)[N+]2=C(c4ccc[nH]4)C=CC2=C3)ccc1O)C(C)C [Tolterodine-2-NB590]
NanoBRET Fold Response (AVPR2; AVPR2, tracer 0.1μM): 1.06 | NanoBRET Fold Response (AVPR2; AVPR2, tracer 1μM): 1.06 | NanoBRET Fold Response (CCR9; CCR9, tracer 0.1μM): 1.12 | NanoBRET Fold Response (CCR9; CCR9, tracer 1μM): 0.95 | NanoBRET Fold Response (GRPR; GRPR, tracer 0.1μM): 0.89 | NanoBRET Fold Response (GRPR; GRPR, tracer 1μM): 0.91 | NanoBRET Fold Response (P2RY10; P2RY10, tracer 0.1μM): 0.91 | NanoBRET Fold Response (P2RY10; P2RY10, tracer 1μM): 0.89 | NanoBRET Fold Response (HCRTR1; HCRTR1, tracer 0.1μM): 1.04 | NanoBRET Fold Response (HCRTR1; HCRTR1, tracer 1μM): 1.16

NanoBRET Fold Response (AVPR2; AVPR2, tracer 0.1μM): 1.01 | NanoBRET Fold Response (AVPR2; AVPR2, tracer 1μM): 1.04 | NanoBRET Fold Response (CCR9; CCR9, tracer 0.1μM): 1.09 | NanoBRET Fold Response (CCR9; CCR9, tracer 1μM): 1.11 | NanoBRET Fold Response (GRPR; GRPR, tracer 0.1μM): 1.08 | NanoBRET Fold Response (GRPR; GRPR, tracer 1μM): 0.98 | NanoBRET Fold Response (P2RY10; P2RY10, tracer 0.1μM): 1.03 | NanoBRET Fold Response (P2RY10; P2RY10, tracer 1μM): 1.02 | NanoBRET Fold Response (HCRTR1; HCRTR1, tracer 0.1μM): 0.98 | NanoBRET Fold Response (HCRTR1; HCRTR1, tracer 1μM): 0.95
SMILES: N#CN=C(NCCCOc1cccc(CN2CCCCC2)c1)NCCNC(=O)CCOCCOCCOCCOCCNC(=O)CCc1ccc2n1[B-](F)(F)[N+]1=C(c3ccc[nH]3)C=CC1=C2 [Aminopotentidine-2-NB590]

NanoBRET Fold Response (AVPR2; AVPR2, 0.1μM): 1.03 | NanoBRET Fold Response (AVPR2; AVPR2, 1μM): 1.05 | NanoBRET Fold Response (CCR9; CCR9, 0.1μM): 1.13 | NanoBRET Fold Response (CCR9; CCR9, 1μM): 1.10 | NanoBRET Fold Response (GRPR; GRPR, 0.1μM): 1.01 | NanoBRET Fold Response (GRPR; GRPR, 1μM): 1.01 | NanoBRET Fold Response (P2RY10; P2RY10, 0.1μM): 1.35 | NanoBRET Fold Response (P2RY10; P2RY10, 1μM): 1.22 | NanoBRET Fold Response (HCRTR1; HCRTR1, 0.1μM): 1.00 | NanoBRET Fold Response (HCRTR1; HCRTR1, 1μM): 1.09
SMILES: CCOC(=O)c1cc(C#N)c(N2CCC(C(=O)NS(=O)(=O)Cc3ccccc3/C=C/C(=O)NCCNC(=O)CCc3ccc4n3[B-](F)(F)[N+]3=C(c5ccc[nH]5)C=CC3=C4)CC2)nc1C [AZD1283-1-NB590]

SMILES: CN(C)CCC=C1c2ccccc2CCc2ccc(C(=O)NCCNC(=O)CCOCCOCCOCCOCCNC(=O)CCc3ccc4n3[B-](F)(F)[N+]3=C(c5ccc[nH]5)C=CC3=C4)cc21 [Amitriptyline-b-2-NB590]
NanoBRET Fold Response (AVPR2; [1]): 1.13 | NanoBRET Fold Response (AVPR2; [2]): 0.89 | NanoBRET Fold Response (CCR9; [1]): 0.81 | NanoBRET Fold Response (CCR9; [2]): 0.84 | NanoBRET Fold Response (GRPR; [1]): 1.05 | NanoBRET Fold Response (GRPR; [2]): 1.03 | NanoBRET Fold Response (P2RY10; [1]): 1.14 | NanoBRET Fold Response (P2RY10; [2]): 1.38 | NanoBRET Fold Response (HCRTR1; [1]): 1.08 | NanoBRET Fold Response (HCRTR1; [2]): 0.91

SMILES: CN(C)CCC=C1c2ccccc2CCc2ccc(C(=O)NCCNC(=O)CCOCCOCCOCCOCCNC(=O)CCc3ccc4n3[B-](F)(F)[N+]3=C(c5ccc[nH]5)C=CC3=C4)cc21 [Amitriptyline-a-2-NB590]
NanoBRET Fold Response (AVPR2; tracer at 0.1μM): 0.95 | NanoBRET Fold Response (AVPR2; tracer at 1μM): 1.05 | NanoBRET Fold Response (CCR9; tracer at 0.1μM): 0.99 | NanoBRET Fold Response (CCR9; tracer at 1μM): 1.05 | NanoBRET Fold Response (GRPR; tracer at 0.1μM): 1.12 | NanoBRET Fold Response (GRPR; tracer at 1μM): 0.98 | NanoBRET Fold Response (P2RY10; tracer at 0.1μM): 1.09 | NanoBRET Fold Response (P2RY10; tracer at 1μM): 1.07 | NanoBRET Fold Response (HCRTR1; tracer at 0.1μM): 1.00 | NanoBRET Fold Response (HCRTR1; tracer at 1μM): 1.00
